From US20240417412A1, “HETEROCYCLIC COMPOUNDS AND METHODS OF USE” (AMGEN INC., priority 2022, published 2024)
Read-outs that look alike come from different tables or passages of the source.

Columns and labels:
p-ERK (AsPC-1 cells) = experiment: Phospho-ERK1/2 MSD Assay; assay type: cell-based
Experimental: Sixteen hours prior to compound treatment, AsPC-1 cells were seeded in 96-well cell culture plates at a density of 25,000 cells/well and incubated at 37° C., 5% CO2. A compound dose-response titration was diluted in growth media, added to appropriate wells of a cell culture plate, and then incubated at 37° C., 5% CO2 for 2 hours. […] Phosphorylation of ERK1/2 in compound-treated lysates was assayed using Phospho-ERK1/2 Whole Cell Lysate kits (Meso Scale Discovery K151DWD) according to the manufacturer's protocol. Assay plates were read on a Meso Scale Discovery Sector Imager 6000, and data were analyzed using a 4-parameter logistic model to calculate IC50 values.

KRAS G12D [1] = molecular target: KRAS G12D (Homo sapiens, UniProt P01116, G12D); experiment: KRAS G12D TR-FRET Assay; settings: His-tagged KRAS G12D, biotinylated KRPep-2d, read-out: KRAS G12D Binding IC50
KRAS G12D (Homo sapiens, UniProt P01116, G12D), sequence (P01116 1-188 isoform P01116-2 G12D): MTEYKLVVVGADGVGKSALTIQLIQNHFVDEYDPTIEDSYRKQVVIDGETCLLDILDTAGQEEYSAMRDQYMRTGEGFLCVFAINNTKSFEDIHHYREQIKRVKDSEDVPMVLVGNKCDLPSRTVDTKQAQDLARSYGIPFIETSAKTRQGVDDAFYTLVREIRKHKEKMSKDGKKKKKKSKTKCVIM
Experimental: The plate was incubated for 30 minutes at room temperature. Biotinylated KRPep-2d substrate (Amgen) was diluted to 20 nM in Assay Buffer and 2 uL was added to all wells and incubated for 1 hour at room temperature. Detection Reagent (0.4 nM LANCE Eu-W1024 Anti-6×His (Perkin Elmer AD0401), 5 nM streptavidin-d2 (Cisbio 610SADLA)) was prepared in Assay Buffer, then 4 μL was added to the plate and incubated for 1 hour at room temperature.

KRAS G12D [2] = molecular target: KRAS G12D (Homo sapiens, UniProt P01116, C118A/G12D); experiment: KRAS G12D Coupled Nucleotide Exchange Assay; assay type: biochemical; settings: GDP-bound KRAS G12D/C118A, 2 hours pre-incubation, SOS-mediated nucleotide exchange, AlphaScreen
KRAS G12D (Homo sapiens, UniProt P01116, C118A/G12D), sequence (P01116 1-169 isoform P01116-2 G12D/C118A): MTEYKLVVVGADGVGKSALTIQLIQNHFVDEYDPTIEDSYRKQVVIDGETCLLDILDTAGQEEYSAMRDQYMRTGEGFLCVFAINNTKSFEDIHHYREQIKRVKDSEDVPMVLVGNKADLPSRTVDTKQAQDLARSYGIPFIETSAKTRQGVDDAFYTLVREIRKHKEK
Experimental: The assay plates were then read on a PerkinElmer EnVision Multilabel Reader, using AlphaScreen® technology, and data were analyzed using a 4-parameter logistic model to calculate IC50 values.

[3] = read-out: 2 h p-ERK (AsPC-1 cells), IC50, AsPC-1 cells, 2 hours compound treatment
[4] = Homo sapiens, ASPC1, 2 h, read-out: 2 h p-ERK (AsPC-1 cells), IC50 (μM), AsPC-1 cells, 2 hours compound treatment

SMILES	IC50 (p-ERK (AsPC-1 cells); [3])	IC50 (KRAS G12D [1])	IC50 (KRAS G12D [2])	IC50 (p-ERK (AsPC-1 cells); [4])
CCc1c(F)ccc2cc(O)cc(-c3ncc4c(N5CCCC6(CCS(=O)(=O)C6)C5)nc(OC[C@@]56CCCN5C[C@H](F)C6)nc4c3F)c12 (single isomer, unassigned) [Example 35]	0.06 µM	2 nM	3 nM	–
CCc1c(F)ccc2cc(O)cc(-c3ncc4c(N5CCCC6(CNC(=O)C6)C5)nc(OC[C@@]56CCCN5C[C@H](F)C6)nc4c3F)c12 (single isomer, unassigned) [Example 7]	–	3 nM	8 nM	–
CCc1c(F)ccc2cc(O)cc(-c3ncc4c(N5CCCC6(CCS6(=O)=O)C5)nc(OC[C@@]56CCCN5C[C@H](F)C6)nc4c3F)c12 (some centres unmarked) [Example 43]	–	12 nM	8 nM	–
CCc1c(F)ccc2cc(O)cc(-c3ncc4c(N5CCCC6(COC(=O)O6)C5)nc(OC[C@@]56CCCN5C[C@H](F)C6)nc4c3F)c12 (single isomer, unassigned) [Example 68]	1.58 µM	23 nM	11 nM	–
CCc1c(F)ccc2cc(O)cc(-c3ncc4c(N5CCC6(CCCS6(=O)=O)C5)nc(OCC56CCCN5C[C@H](F)C6)nc4c3F)c12 (stereo in doubt) [Example 51, 7-(7-(8-Ethyl-7-fluoro-3-hydroxynaphthalen-1-yl)-8-fluoro-2-(((2R,7aS)-2-fluorotetrahydro-1H-pyrrolizin-7a(5H)-yl)methoxy)pyrido[4,3-d]pyrimidin-4-yl)-1-thia-7-azaspiro[4.4]nonane 1,1-dioxide]	–	17 nM	13 nM	–
CCc1c(F)ccc2cc(O)cc(-c3ncc4c(N5CCCC6(CCC(=O)O6)C5)nc(OC[C@@]56CCCN5C[C@H](F)C6)nc4c3F)c12 (single isomer, unassigned) [Example 66]	–	3 nM	1 nM	0.03 µM
CCc1c(F)ccc2cc(O)cc(-c3ncc4c(N5CCCC6(CC(=O)N6C)C5)nc(OC[C@@]56CCCN5C[C@H](F)C6)nc4c3F)c12 (stereo partly drawn) [Example 6, 6-(7-(8-Ethyl-7-fluoro-3-hydroxynaphthalen-1-yl)-8-fluoro-2-(((2R,7aS)-2-fluorotetrahydro-1H-pyrrolizin-7a(5H)-yl)methoxy)pyrido[4,3-d]pyrimidin-4-yl)-1-methyl-1,6-diazaspiro[3.5]nonan-2-one]	–	8 nM	10 nM	2.4 µM
Oc1cc(-c2ncc3c(N4CCCC5(CCO5)C4)nc(OC[C@@]45CCCN4C[C@H](F)C5)nc3c2F)c2c(F)c(F)ccc2c1 (single isomer, unassigned) [Example 24]	–	1 nM	2 nM	0.009 µM
CCc1c(F)ccc2cc(O)cc(-c3ncc4c(N5CC(O)CC6(CC6)C5)nc(OC[C@@]56CCCN5C[C@H](F)C6)nc4c3F)c12 (single isomer, unassigned) [Example 3]	–	1 nM	2 nM	0.034 µM
CCc1c(F)ccc2cc(O)cc(-c3ncc4c(N5CCCC6(CCC6O)C5)nc(OC[C@@]56CCCN5C[C@H](F)C6)nc4c3F)c12 (single isomer, unassigned) [Example 48]	–	36 nM	54 nM	–
CCc1c(F)ccc2cc(O)cc(-c3ncc4c(N5CCCC6(CNC6=O)C5)nc(OC[C@@]56CCCN5C[C@H](F)C6)nc4c3F)c12 (single isomer, unassigned) [Example 46]	–	59 nM	65 nM	–
CCc1c(F)ccc2cc(O)cc(-c3ncc4c(N5CC(O)CC6(CC6)C5)nc(OC[C@@]56CCCN5C[C@H](F)C6)nc4c3F)c12 (single isomer, unassigned) [Example 4]	–	2 nM	3 nM	–
CCc1c(F)ccc2cc(O)cc(-c3ncc4c(N5CCCC6(CCC(=O)O6)C5)nc(OC[C@@]56CCCN5C[C@H](F)C6)nc4c3F)c12 (single isomer, unassigned) [Example 65]	–	74 nM	42 nM	–
CCc1c(F)ccc2cc(O)cc(-c3ncc4c(N5CCCC6(CNC6)C5)nc(OC[C@@]56CCCN5C[C@H](F)C6)nc4c3F)c12 [Example 38, 5-Ethyl-6-fluoro-4-(8-fluoro-2-(((2R,7aS)-2-fluorotetrahydro-1H-pyrrolizin-7a(5H)-yl)methoxy)-4-(2,6-diazaspiro[3.5]nonan-6-yl)pyrido[4,3-d]pyrimidin-7-yl)naphthalen-2-ol]	–	31 nM	33 nM	–
CCc1c(F)ccc2cccc(-c3ncc4c(N5CCCC6(CNC(=O)O6)C5)nc(OC[C@@]56CCCN5C[C@H](F)C6)nc4c3F)c12 (single isomer, unassigned) [Example 64]	–	305 nM	129 nM	–
CCc1c(F)ccc2cc(O)cc(-c3ncc4c(N5CCOCC6(COC6)C5)nc(OCC56CCCN5C[C@H](F)C6)nc4c3F)c12 (stereo in doubt) [Example 50, 5-Ethyl-6-fluoro-4-(8-fluoro-2-(((2R,7aS)-2-fluorotetrahydro-1H-pyrrolizin-7a(5H)-yl)methoxy)-4-(2,6-dioxa-9-azaspiro[3.6]decan-9-yl)pyrido[4,3-d]pyrimidin-7-yl)naphthalen-2-ol]	–	56 nM	50 nM	–
CCc1c(F)ccc2cc(O)cc(-c3ncc4c(N5CCCC6(CC(O)C6)C5)nc(OC[C@@]56CCCN5C[C@H](F)C6)nc4c3F)c12 (single isomer, unassigned) [Example 55]	0.078 µM	–	–	–
CCc1c(F)ccc2cc(O)cc(-c3ncc4c(N5CCCC6(C5)CN(S(C)(=O)=O)C6)nc(OC[C@@]56CCCN5C[C@H](F)C6)nc4c3F)c12 [Example 52, 5-Ethyl-6-fluoro-4-(8-fluoro-2-(((2R,7aS)-2-fluorotetrahydro-1H-pyrrolizin-7a(5H)-yl)methoxy)-4-(2-(methylsulfonyl)-2,6-diazaspiro[3.5]nonan-6-yl)pyrido[4,3-d]pyrimidin-7-yl)naphthalen-2-ol]	–	6 nM	6 nM	–
CCc1c(F)ccc2cc(O)cc(-c3ncc4c(N5CCCC6(CCNC6=O)C5)nc(OC[C@@]56CCCN5C[C@H](F)C6)nc4c3F)c12 (stereo partly drawn) [Example 47, 7-(7-(8-Ethyl-7-fluoro-3-hydroxynaphthalen-1-yl)-8-fluoro-2-(((2R,7aS)-2-fluorotetrahydro-1H-pyrrolizin-7a(5H)-yl)methoxy)pyrido[4,3-d]pyrimidin-4-yl)-2,7-diazaspir[4.5]decan-1-one]	–	51 nM	24 nM	–
CCc1c(F)ccc2cccc(-c3ncc4c(N5CCCC6(CNC6=O)C5)nc(OC[C@@]56CCCN5C[C@H](F)C6)nc4c3F)c12 (stereo partly drawn) [Example 32, 6-(7-(8-Ethyl-7-fluoronaphthalen-1-yl)-8-fluoro-2-(((2R,7aS)-2-fluorotetrahydro-1H-pyrrolizin-7a(5H)-yl)methoxy)pyrido[4,3-d]pyrimidin-4-yl)-2,6-diazaspiro[3.5]nonan-1-one]	–	4 nM	5 nM	–
CCc1c(F)ccc2cc(O)cc(-c3ncc4c(N5CCCC6(CCO6)C5)nc(OC[C@@]56CCCN5C[C@H](F)C6)nc4c3F)c12 (single isomer, unassigned) [Example 22]	0.252 µM	–	–	–
CCc1c(F)ccc2cc(O)cc(-c3ncc4c(N5CCCC6(CC(O)C6)C5)nc(OC[C@@]56CCCN5C[C@H](F)C6)nc4c3F)c12 (single isomer, unassigned) [Example 54]	0.008 µM	–	–	–
CCc1c(F)ccc2cc(O)cc(-c3ncc4c(N5CCCC6(CCO6)C5)nc(OC[C@@]56CCCN5C[C@H](F)C6)nc4c3C)c12 (single isomer, unassigned) [Example 62]	–	68 nM	42 nM	–
CCc1c(F)ccc2cc(O)cc(-c3ncc4c(N5CCCC6(CCO6)C5)nc(OC[C@@]56CCCN5C[C@H](F)C6)nc4c3F)c12 (single isomer, unassigned) [Example 21]	0.003 µM	–	–	–
CCc1c(F)ccc2cc(O)cc(-c3ncc4c(N5CCCC6(CCN6)C5)nc(OC[C@@]56CCCN5C[C@H](F)C6)nc4c3F)c12 (stereo partly drawn) [Example 5, 5-Ethyl-6-fluoro-4-(8-fluoro-2-(((2R,7aS)-2-fluorotetrahydro-1H-pyrrolizin-7a(5H)-yl)methoxy)-4-(1,6-diazaspiro[3.5]nonan-6-yl)pyrido[4,3-d]pyrimidin-7-yl)naphthalen-2-ol]	–	40 nM	17 nM	–
CCc1c(F)ccc2cc(O)cc(-c3ncc4c(N5CCOC6(CCC6)C5)nc(OC[C@@]56CCCN5C[C@H](F)C6)nc4c3F)c12 [Example 31, 5-Ethyl-6-fluoro-4-(8-fluoro-2-(((2R,7aS)-2-fluorotetrahydro-1H-pyrrolizin-7a(5H)-yl)methoxy)-4-(5-oxa-8-azaspiro[3.5]nonan-8-yl)pyrido[4,3-d]pyrimidin-7-yl)naphthalen-2-ol]	–	27 nM	28 nM	–
CCc1c(F)ccc2cc(O)cc(-c3ncc4c(N5CCCC6(COC6)C5)nc(OC[C@@]56CCCN5C[C@H](F)C6)nc4c3F)c12 [Example 20, 5-Ethyl-6-fluoro-4-(8-fluoro-2-(((2R,7aS)-2-fluorotetrahydro-1H-pyrrolizin-7a(5H)-yl)methoxy)-4-(2-oxa-6-azaspiro[3.5]nonan-6-yl)pyrido[4,3-d]pyrimidin-7-yl)naphthalen-2-ol]	–	2 nM	3 nM	–
